One experiment has as its system P388/ADR leukemia. Put plainly: NCI tumour cell line growth inhibition, 48 h.
The subject of the next experiment is SN12K1 renal. Put plainly: NCI tumour cell line growth inhibition, 48 h.

Several values for one entry are separate records, joined by “and”; a condition that tells them apart may be missing. Equal entries are not always repeated.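 Tested at 5 concentrations; 48 h exposure; 96-well plates; endpoints linearly interpolated, else capped at highest concentration. The concentration for 50% growth inhibition is given as GI50. TGI: total growth inhibition.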

On to `CSC1SCC2C(=O)N(C)C(C(C)C)C(=O)OCC(NC(=O)c3cnc4ccccc4n3)C(=O)NC(C)C(=O)N(C)C1C(=O)N(C)C(C(C)C)C(=O)OCC(NC(=O)c1cnc3ccccc3n1)C(=O)NC(C)C(=O)N2C` (centres undefined), for which, in the experiment on P388/ADR leukemia, the GI50 is 7.5 nM; the TGI was 49 nM and 34.8 nM. In the experiment with SN12K1 renal, the GI50 was 0.567 nM; the TGI was 24.8 nM and 80.1 nM.

The values are drawn from PubChem BioAssay (NCI).
